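Five compound concentrations were applied to cells in 96-well plates for 48 hours; endpoints were derived by simple linear interpolation of the resulting dose-response curve. The concentration for 50% growth inhibition is given as GI50.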 Active and inactive are the calls of the source. Cut-off read from the data, not from the text of the source: active = GI50 up to about 1.1 µM and inactive = higher.

Test systems include MOLT-4; Malme-3M; K562; DU-145; NCI-H23; HCT-116; M14; A498; SK-OV-3; NCI-H460; OVCAR-8; CCRF-CEM; OVCAR-3; SR; MCF7; SNB-75; COLO 205; SK-MEL-28; LOX IMVI.
Common to all, as to assay: NCI-60 cell line screen, 48 h

Turning to `CSc1ncnc2c1ncn2CCC(=O)OC(C)(C)C`, the GI50 in the test with MOLT-4, with Malme-3M, in the test with K562, in the test on DU-145, in the test with NCI-H23 and in the test on HCT-116 was > 100 µM (inactive) throughout. In addition, the GI50 with M14, in the test with A498, in the test on SK-OV-3, in the test with NCI-H460, with OVCAR-8 and in the test with CCRF-CEM was > 100 µM (inactive) throughout. Further, the GI50 with OVCAR-3, in the test on SR, with MCF7, in the test with SNB-75, in the test on COLO 205 and in the test with SK-MEL-28 was > 100 µM (inactive) each time. Besides, the GI50 in the test with LOX IMVI was > 100 µM (inactive).
On to `S=C(N/N=C(\c1ccccc1)c1ccccn1)NC1CCCCC1`, for which the GI50 in the test with MOLT-4 is 0.54 µM (active); in the test with Malme-3M, 1.32 µM (inactive); in the test with K562, 0.5 µM (active); with DU-145 it was 29.3 µM (inactive); in the test on NCI-H23, 1.6 µM (inactive); in the test with HCT-116 it was 0.566 µM (active). Further, the GI50 is 1.16 µM (inactive) in the test on M14; > 100 µM (inactive) in the test with A498; 11.5 µM (inactive) with SK-OV-3; 3.36 µM (inactive) with NCI-H460; 0.34 µM (active) with OVCAR-8; 0.322 µM (active) in the test on CCRF-CEM. In addition, the GI50 in the test on OVCAR-3 was 2.75 µM (inactive); in the test with SR it was > 26.1 µM (inactive); in the test with MCF7 it was 0.433 µM (active); in the test on SNB-75, 65.3 µM (inactive); in the test on COLO 205, 0.543 µM (active); with SK-MEL-28, 46.1 µM (inactive). Moreover, the GI50 with LOX IMVI is 2.61 µM (inactive).
For the compound `Fc1ccc(/C(=N/Cc2ccccc2)N2CCOCC2)cc1`, the GI50 in the test with MOLT-4, in the test on Malme-3M, with K562, with DU-145, in the test with NCI-H23 and with HCT-116 was > 100 µM (inactive) throughout. Further, the GI50 in the test with M14, with A498, in the test on SK-OV-3, in the test with NCI-H460, in the test with OVCAR-8 and with CCRF-CEM was > 100 µM (inactive) each time. The GI50 in the test with OVCAR-3, in the test with SR, with MCF7, in the test with SNB-75, in the test on COLO 205 and in the test with SK-MEL-28 was > 100 µM (inactive) in each case. For the same compound, in the test on LOX IMVI, the GI50 is > 100 µM (inactive).
As to `CCNC(=S)/N=c1\sc(NCC)nc2sc3c(c12)CCN(N1CCc2c(sc4nc(NCC)s/c(=N\C(=S)NCC)c24)C1)C3`, the GI50 is 34.1 µM (inactive) with MOLT-4; > 100 µM (inactive) in the test on Malme-3M; 27.7 µM (inactive) in the test on K562; 77.8 µM (inactive) in the test on DU-145; > 100 µM (inactive) in the test on NCI-H23; 19.5 µM (inactive) in the test on HCT-116. In addition, the GI50 was 46.5 µM (inactive) in the test on M14; 54 µM (inactive) in the test on A498; > 100 µM (inactive) with SK-OV-3; 76.6 µM (inactive) with NCI-H460; 60.4 µM (inactive) with OVCAR-8; 41.9 µM (inactive) with CCRF-CEM. Moreover, the GI50 with OVCAR-3 is > 100 µM (inactive); with SR it was 30.5 µM (inactive); with MCF7 it was > 100 µM (inactive); in the test on SNB-75 it was > 100 µM (inactive); in the test with COLO 205 it was 57.4 µM (inactive); in the test on SK-MEL-28, 92 µM (inactive). In the test on LOX IMVI, the GI50 is 26 µM (inactive).
In the case of `CC(C)c1c(O[Si](C(C)C)(C(C)C)C(C)C)c2c3c(ccc4c3c1OC4(C)C)C(C)CC2` (stereo not given), the GI50 with MOLT-4, in the test with Malme-3M, with K562, in the test with DU-145, with NCI-H23 and in the test with HCT-116 was > 100 µM (inactive) throughout. The GI50 in the test with M14, in the test with A498, in the test with SK-OV-3, in the test on NCI-H460, with OVCAR-8 and in the test on CCRF-CEM was > 100 µM (inactive) each time. The GI50 was > 100 µM (inactive) in the test on OVCAR-3; > 100 µM (inactive) in the test with SR; > 100 µM (inactive) with MCF7; 21.3 µM (inactive) in the test on SNB-75; > 100 µM (inactive) in the test with COLO 205; > 100 µM (inactive) in the test on SK-MEL-28. In the test on LOX IMVI, the GI50 is > 100 µM (inactive).
For `COc1cc([C@@H]2c3cc4c(cc3[C@@H](Nc3ccc(/N=C\c5ccc(C(=O)O[C@@H](C(=O)O[C@H]6C[C@@]7(O)[C@@H](OC(=O)c8ccccc8)[C@@H]8[C@]9(OC(C)=O)CO[C@@H]9C[C@H](O)[C@@]8(C)C(=O)[C@H](OC(C)=O)C(=C6C)C7(C)C)[C@@H](NC(=O)c6ccccc6)c6ccccc6)cc5)cc3)[C@H]3COC(=O)[C@H]23)OCO4)cc(OC)c1O`, the GI50 is 0.14 µM (active) in the test on MOLT-4; > 50 µM (inactive) with Malme-3M; 2.28 µM (inactive) in the test with K562; 2.68 µM (inactive) in the test on DU-145; 2.75 µM (inactive) with NCI-H23; 3.28 µM (inactive) in the test with HCT-116. Besides, the GI50 in the test with M14 was 5.48 µM (inactive); with A498, 0.196 µM (active); in the test with SK-OV-3 it was 2.78 µM (inactive); in the test on NCI-H460, 0.113 µM (active); in the test with OVCAR-8, 6.15 µM (inactive); with CCRF-CEM, 0.544 µM (active). For the same compound, the GI50 was 15.9 µM (inactive) with OVCAR-3; 0.0102 µM (active) in the test on SR; 0.384 µM (active) with MCF7; 2.29 µM (inactive) with SNB-75; 1.39 µM (inactive) in the test on COLO 205; > 38.8 µM (inactive) in the test with SK-MEL-28. The GI50 with LOX IMVI was 3.49 µM (inactive).
For the compound `COC(=O)/C=C\C(C#N)(C#N)/N=C/c1ccc(Br)cc1`, the GI50 in the test with MOLT-4 was 0.673 µM (active); in the test with Malme-3M, 3.24 µM (inactive); in the test with K562, 3.4 µM (inactive); with DU-145, 12.1 µM (inactive); in the test with NCI-H23, 14.9 µM (inactive); with HCT-116 it was 2.57 µM (inactive). Besides, the GI50 in the test with M14 was 7.26 µM (inactive); with A498, 16.2 µM (inactive); in the test with SK-OV-3 it was 18.8 µM (inactive); in the test with NCI-H460, 19.6 µM (inactive); in the test with OVCAR-8, 5.47 µM (inactive); in the test with CCRF-CEM it was 1.54 µM (inactive). In addition, the GI50 was 12 µM (inactive) with OVCAR-3; 5.42 µM (inactive) with SR; 3.52 µM (inactive) in the test on MCF7; 15 µM (inactive) in the test with SNB-75; 3.37 µM (inactive) with COLO 205; 15.4 µM (inactive) with SK-MEL-28. Further, in the test on LOX IMVI, the GI50 is 1.85 µM (inactive).
With `COc1cc(S(=O)(=O)Nc2ccc(-c3csc(N4C(=O)C(Cl)C4c4cccc(Oc5ccccc5)c4)n3)cc2)ccc1Cl` (stereo not given), the GI50 in the test with MOLT-4 is 15.3 µM (inactive); in the test with Malme-3M it was > 100 µM (inactive); with K562, 27.9 µM (inactive); in the test on DU-145, 21.7 µM (inactive); in the test with NCI-H23, 16 µM (inactive); with HCT-116, 35.6 µM (inactive). Further, the GI50 in the test on M14 was 22.9 µM (inactive); with A498, 25.2 µM (inactive); in the test with SK-OV-3 it was > 100 µM (inactive); in the test on NCI-H460 it was > 100 µM (inactive); with OVCAR-8, 30.3 µM (inactive); with CCRF-CEM it was 3.31 µM (inactive). Also, the GI50 is 58.5 µM (inactive) with OVCAR-3; 3.13 µM (inactive) with SR; 37.7 µM (inactive) in the test with MCF7; 22.3 µM (inactive) with SNB-75; 21.5 µM (inactive) in the test with COLO 205; 24.3 µM (inactive) in the test with SK-MEL-28. Further, the GI50 in the test on LOX IMVI was 2.24 µM (inactive).
On to `O=C(N1CCN(c2ccccc2)CC1)N(C(=O)C1(c2ccc(Cl)cc2)CCCC1)S(=O)(=O)c1ccccc1`, for which the GI50 is 23.3 µM (inactive) in the test on MOLT-4; 26.4 µM (inactive) in the test on Malme-3M; 32.4 µM (inactive) with K562; 38.5 µM (inactive) in the test with DU-145; 26.7 µM (inactive) with NCI-H23; 22.5 µM (inactive) with HCT-116. Moreover, the GI50 in the test on M14 was 21.1 µM (inactive); with A498 it was < 0.01 µM (active); in the test on SK-OV-3, 30 µM (inactive); with NCI-H460 it was 30.5 µM (inactive); in the test on OVCAR-8 it was 33 µM (inactive); in the test on CCRF-CEM, 29.7 µM (inactive). Moreover, the GI50 in the test with OVCAR-3 is 31.6 µM (inactive); in the test on SR, 53.2 µM (inactive); in the test on MCF7 it was 26.9 µM (inactive); with SNB-75, 52.2 µM (inactive); in the test on COLO 205 it was 24.7 µM (inactive); in the test with SK-MEL-28, 40.8 µM (inactive). In the test with LOX IMVI, the GI50 is 21.3 µM (inactive).
On to `Cn1c(N/N=C/c2ccccc2)nc(-c2ccc([N+](=O)[O-])cc2)c(C#N)c1=O`, for which the GI50 in the test on MOLT-4 is 10.4 µM (inactive); in the test on Malme-3M it was 33.1 µM (inactive); with K562 it was 1.61 µM (inactive); in the test on DU-145, 34.7 µM (inactive); in the test on NCI-H23, 44.3 µM (inactive); in the test with HCT-116, 27.6 µM (inactive). For the same compound, the GI50 with M14 was > 100 µM (inactive); in the test on A498, 65.8 µM (inactive); in the test on SK-OV-3 it was > 100 µM (inactive); with NCI-H460 it was 32.1 µM (inactive); with OVCAR-8 it was 34.3 µM (inactive); in the test on CCRF-CEM it was 26 µM (inactive). The GI50 with OVCAR-3 is 20.5 µM (inactive); with SR, 2.63 µM (inactive); with MCF7, 13.1 µM (inactive); in the test on SNB-75 it was 88.5 µM (inactive); with COLO 205 it was 44.2 µM (inactive); in the test with SK-MEL-28, > 100 µM (inactive). In addition, in the test on LOX IMVI, the GI50 was 61.8 µM (inactive).

For the origin of these results see ChEMBL document CHEMBL1201862, “PubChem BioAssay data set” (2004).
